Data reported in the supplement of paper PMC10307832.

What was measured:
Assay in all cases: relative viability (nuclei count vs DMSO), 5 days (fraction); higher = more cells survive
Sulindac + Tozasertib = compound: CC1=C(CC(=O)O)c2cc(F)ccc2/C1=C\c1ccc([S+](C)[O-])cc1 [Sulindac] + Cc1cc(Nc2cc(N3CCN(C)CC3)nc(Sc3ccc(NC(=O)C4CC4)cc3)n2)n[nH]1 [Tozasertib] (partner 0.1 µM)
In short: (§1)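 Each reported value is a median over duplicate plates. It expresses relative viability: treated-well nuclei count divided by vehicle-well nuclei count. Lung cancer cell lines in 1536-well plates were dosed by pin tool a day after seeding, alone with one drug or with a fixed anchor-drug dose plus five library-drug doses (not always all listed) in √10 steps, and nuclei were counted after 5 days.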

[1] = compound: CN[C@@H]1C[C@H]2O[C@@](C)([C@@H]1OC)n1c3ccccc3c3c4c(c5c6ccccc6n2c5c31)C(=O)NC4 [Staurosporine] + C[C@]1(O)C[C@@H](c2nc(-c3ccc4ccc(-c5ccccc5)nc4c3)c3c(N)nccn32)C1 [Linsitinib] (partner 1 µM)
In short: as §1

Sulindac + Vorinostat = compound: CC1=C(CC(=O)O)c2cc(F)ccc2/C1=C\c1ccc([S+](C)[O-])cc1 [Sulindac] + O=C(CCCCCCC(=O)Nc1ccccc1)NO [Vorinostat] (partner 1 µM)
In short: as §1

[2] = compound: O=c1[nH]cc(F)c(=O)[nH]1 [5-Fluorouracil] + N=C(N)NC(=N)NCCc1ccccc1 [Phenformin] (partner 250 µM)
In short: as §1

Row | Cell Line | relative viability (Sulindac + Tozasertib; first compound 0.08 µM) | relative viability (Sulindac + Tozasertib; first compound 0.253 µM) | relative viability (Sulindac + Tozasertib; first compound 0.8 µM) | relative viability (Sulindac + Tozasertib; first compound 2.53 µM) | relative viability (Sulindac + Tozasertib; first compound 8 µM) | relative viability ([1]; first compound 0.005 µM) | relative viability ([1]; first compound 0.01581 µM) | relative viability ([1]; first compound 0.05 µM) | relative viability ([1]; first compound 0.1581 µM) | relative viability ([1]; first compound 0.5 µM) | relative viability (Sulindac + Vorinostat; first compound 0.08 µM) | relative viability (Sulindac + Vorinostat; first compound 0.253 µM) | relative viability (Sulindac + Vorinostat; first compound 0.8 µM) | relative viability (Sulindac + Vorinostat; first compound 2.53 µM) | relative viability (Sulindac + Vorinostat; first compound 8 µM) | relative viability ([2]; first compound 0.02 µM) | relative viability ([2]; first compound 0.2 µM) | relative viability ([2]; first compound 0.6325 µM) | relative viability ([2]; first compound 2 µM)
1 | NCI-H322M | 0.483 | 0.485 | 0.47 | 0.51 | 0.499 | 1.12 | 0.648 | 0.56 | 0.427 | 0.458 | 0.859 | 0.914 | 0.882 | 0.916 | 0.863 | 0.857 | 0.743 | 0.724 | 0.541
2 | NCI-H358 | 0.112 | 0.0982 | 0.104 | 0.0899 | 0.102 | 0.573 | 0.281 | 0.189 | 0.152 | 0.122 | 0.842 | 0.722 | 0.601 | 0.669 | 0.897 | 0.351 | 0.383 | 0.313 | 0.262
3 | NCI-H441 | 0.763 | 0.773 | 0.593 | 0.725 | 0.667 | 0.304 | 0.126 | 0.153 | 0.153 | 0.141 | 1.02 | 0.936 | 0.599 | 0.782 | 0.981 | 0.927 | 0.979 | 0.553 | 0.387
4 | NCI-H460 | 0.639 | 0.439 | 0.667 | 0.46 | 0.314 | 0.406 | 0.169 | 0.0258 | 0.0051 | 0.0055 | 1.35 | 0.614 | 0.623 | 0.994 | 0.795 | 0.551 | 0.447 | 0.109 | 0.0647
5 | NCI-H520 | 0.431 | 0.4 | 0.435 | 0.437 | 0.48 | 1.05 | 0.824 | 0.604 | 0.213 | 0.128 | 0.897 | 0.914 | 0.686 | 0.682 | 0.778 | 0.525 | 0.677 | 0.46 | 0.442
6 | NCI-H596 | 0.877 | 0.939 | 0.913 | 0.946 | 1 | 1.34 | 0.854 | 0.854 | 0.385 | 0.148 | 0.589 | 0.606 | – | 0.578 | 0.612 | 0.863 | 0.676 | 0.643 | 0.508
7 | NCI-H647 | 0.35 | 0.364 | 0.481 | 0.566 | 0.448 | 0.616 | 0.361 | 0.22 | 0.112 | 0.0579 | 0.604 | 0.952 | 0.409 | 0.628 | 0.549 | 0.504 | 0.495 | 0.544 | 0.399
8 | NCI-H650 | 0.76 | 0.744 | 0.71 | 0.607 | 0.757 | 0.472 | 0.289 | 0.249 | 0.197 | 0.177 | 0.506 | 0.429 | 0.334 | 0.379 | 0.579 | 0.406 | 0.339 | 0.328 | 0.319
9 | NCI-H661 | 0.351 | 0.336 | 0.362 | 0.362 | 0.38 | 0.458 | 0.384 | 0.258 | 0.245 | 0.226 | 0.936 | 0.812 | 0.693 | 0.814 | 0.852 | 0.274 | – | 0.284 | 0.287
10 | NCI-H727 | 0.609 | 1.78 | – | 0.451 | 0.795 | 0.225 | 0.234 | 0.268 | 0.277 | 0.129 | 1.35 | 1.21 | 0.998 | 1.18 | 1.24 | 0.532 | 0.472 | 0.489 | 0.495
11 | NCI-H838 | 0.283 | 0.269 | 0.253 | 0.248 | 0.218 | 0.248 | 0.153 | 0.18 | 0.164 | 0.099 | 0.736 | 0.777 | 0.762 | 0.726 | 0.713 | 0.544 | 0.609 | 0.364 | 0.245
12 | NCI-H1355 | 0.544 | 0.607 | – | 0.502 | 0.57 | 0.908 | 0.543 | 0.24 | 0.269 | 0.223 | 0.586 | 0.721 | 0.488 | 0.619 | 0.723 | 0.431 | 0.412 | 0.296 | 0.297
13 | NCI-H1395 | 0.694 | 0.732 | 0.776 | 0.733 | 0.866 | 0.947 | 0.427 | 0.381 | 0.377 | 0.289 | 0.662 | 0.832 | 0.641 | 0.682 | 0.959 | 0.426 | 0.458 | 0.428 | 0.494
14 | NCI-H1437 | 0.438 | 0.434 | 0.32 | 0.397 | 0.429 | – | 0.43 | 0.255 | 0.128 | 0.0812 | 0.951 | 0.872 | 0.749 | 0.837 | 0.876 | 0.238 | 0.192 | 0.137 | 0.173
15 | NCI-H1651 | 0.755 | 0.66 | – | 0.686 | 0.666 | 0.827 | 0.587 | 0.331 | 0.122 | 0.0924 | 0.623 | 0.57 | 0.486 | 0.577 | 0.593 | 0.395 | 0.334 | 0.265 | 0.341
16 | NCI-H1666 | 0.624 | 0.627 | 0.593 | 0.562 | 0.648 | 0.475 | 0.42 | 0.322 | 0.238 | 0.221 | 0.981 | 1.06 | 0.867 | 0.891 | 1.1 | 0.582 | 0.447 | 0.392 | 0.392
17 | NCI-H1734 | 0.221 | 0.25 | – | 0.295 | 0.286 | 0.849 | 0.473 | 0.294 | 0.228 | 0.164 | 0.844 | 0.826 | 0.664 | 0.78 | 1.05 | 0.374 | 0.436 | 0.379 | 0.313
